# From ChEMBL document CHEMBL4382207, “Computer-aided drug discovery of Myc-Max inhibitors as potential therapeutics for prostate cancer” (Eur J Med Chem, 2018)
# Active and inactive are the calls of the source. No cut-off for these calls is given here.
# Columns and labels:
# c-Myc/Max [1] = target: T1, c-Myc/Max (Homo sapiens, UniProt P01106+P61244); assay: Inhibition of biotin-labeled EBOX oligonucleotide binding to GST-tagged Myc (368 to 454 residues)/His-tagged Max (23 to 102 residues) (unknown origin) expressed in Escherichia coli BL21(DE3) at 500 uM incubated up to 600 secs by biolayer interferometry assay
# c-Myc/Max [2] = target: T1, c-Myc/Max; assay: Inhibition of Myc-Max (unknown origin) expressed in human 22rv1 cells harboring UBE2C promoter assessed as reduction in ARV7 level at 12.5 to 25 uM after 48 hrs by Western blot analysis; type: cell-based
# c-Myc/Max [3] = target: T1, c-Myc/Max; assay: Inhibition of Myc-Max (unknown origin) expressed in human LNCAP cells assessed as reduction in transcriptional activity at 25 uM after 1 day by luciferase reporter gene assay relative to control; type: cell-based
# LNCaP [4] = assay: Cytotoxicity against human LNCAP cells assessed as reduction in cell viability after 96 hrs by prestoblue assay; type: functional, cell-based
# c-Myc/Max [5] = target: T1, c-Myc/Max; assay: Inhibition of Myc-Max (unknown origin) expressed in human 22rv1 cells harboring UBE2C promoter assessed as reduction in ARV7 level after 1 day by luciferase reporter gene assay; type: cell-based
# c-Myc/Max [6] = target: T1, c-Myc/Max; assay: Inhibition of full length Myc-Max (unknown origin) expressed in human PC3 cells at 12.5 to 25 uM after 24 hrs by luciferase reporter gene based mammalian two-hybrid assay; type: cell-based
# c-Myc/Max [7] = target: T1, c-Myc/Max; assay: Inhibition of Myc-Max (unknown origin) expressed in human 22rv1 cells harboring UBE2C promoter assessed as reduction in ARV7 level at 25 uM after 1 day by luciferase reporter gene assay relative to control; type: cell-based
# c-Myc/Max [8] = target: T1, c-Myc/Max; assay: Inhibition of biotin-labeled EBOX oligonucleotide binding to GST-tagged Myc (368 to 454 residues)/His-tagged Max (23 to 102 residues) (unknown origin) expressed in Escherichia coli BL21(DE3) incubated up to 600 secs by biolayer interferometry assay
# LNCaP [9] = assay: Induction of apoptosis in human LNCAP cells assessed as increase in PARP cleavage at 6.25 to 25 uM after 48 hrs by Western blot analysis; type: functional, cell-based
# LNCaP [10] = assay: Cytotoxicity against human LNCAP cells assessed as reduction in cell viability at 3 uM after 96 hrs by prestoblue assay relative to control; type: functional
# [11] = Cytotoxicity against rat HO15.19 cells assessed as reduction in cell viability at 25 uM after 96 hrs by prestoblue assay relative to control; type: cell-based; conditions: read-out: INH
# c-Myc/Max [12] = target: T1, c-Myc/Max; assay: Inhibition of Myc-Max (unknown origin) expressed in human LNCAP cells assessed as reduction in transcriptional activity after 1 day by luciferase reporter gene assay; type: cell-based
# HO15.19 = assay: Cytotoxicity against rat HO15.19 cells assessed as reduction in cell viability at 3 uM after 96 hrs by prestoblue assay; type: cell-based; conditions: ho15.19, 96 h
# T1 sequence (P01106 whole entry, the tested form may be a part): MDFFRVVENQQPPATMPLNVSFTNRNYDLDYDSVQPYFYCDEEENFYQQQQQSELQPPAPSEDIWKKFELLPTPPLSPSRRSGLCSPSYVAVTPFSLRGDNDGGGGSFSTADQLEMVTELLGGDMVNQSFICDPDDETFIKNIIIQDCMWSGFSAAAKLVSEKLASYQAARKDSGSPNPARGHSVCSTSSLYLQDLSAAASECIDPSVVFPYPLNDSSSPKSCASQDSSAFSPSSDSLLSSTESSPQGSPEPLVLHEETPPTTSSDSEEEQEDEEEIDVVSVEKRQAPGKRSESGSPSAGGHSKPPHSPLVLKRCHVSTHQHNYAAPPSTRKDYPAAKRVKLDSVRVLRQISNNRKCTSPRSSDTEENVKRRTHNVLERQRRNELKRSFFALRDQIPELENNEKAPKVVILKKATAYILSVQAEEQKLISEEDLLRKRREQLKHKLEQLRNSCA
# T1 sequence (P61244 whole entry, the tested form may be a part): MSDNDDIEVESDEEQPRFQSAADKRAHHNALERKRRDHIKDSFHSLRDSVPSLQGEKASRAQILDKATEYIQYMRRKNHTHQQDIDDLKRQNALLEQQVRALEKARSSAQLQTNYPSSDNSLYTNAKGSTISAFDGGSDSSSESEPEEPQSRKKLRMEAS
inhibition (c-Myc/Max [3]) [%],inhibition (c-Myc/Max [5]),inhibition (c-Myc/Max [7]) [%],SMILES,IC50 (LNCaP [4]) [µM],also measured
88,Dose-dependent effect,–,O=[N+]([O-])c1ccc(Nc2ccccc2-c2ccccc2)c2nonc12,8.7,inhibition (c-Myc/Max [1]): Active; inhibition (c-Myc/Max [2]): Active; inhibition (c-Myc/Max [6]): inactive
91,Dose-dependent effect,70,CCc1ccc(/C=C2\SC(=S)NC2=O)cc1,18.3,–
95,Dose-dependent effect,73,NC(=O)c1ccsc1NC(=O)Nc1cccc(C(F)(F)F)c1,–,–
53,Dose-dependent effect,–,CS(=O)(=O)Nc1ccccc1C(=O)OCc1cc(=O)oc2cc(O)ccc12,–,–
106,Dose-dependent effect,94,FC(F)(F)c1cc(NC(=S)NCc2ccccc2)cc(C(F)(F)F)c1,2.5,"inhibition (c-Myc/Max [8]): Dose-dependent effect; Activity (LNCaP [9]): Active; inhibition (c-Myc/Max [1]): Active; inhibition at 3 µM (LNCaP [10]): 70%; inhibition (c-Myc/Max [2]): Active; cytotoxicity at 96 h, 25 µM [11]: ≤ 40%; IC50 (c-Myc/Max [12]): 8.9 µM; inhibition (c-Myc/Max [6]): Active; Activity (HO15.19): Non-Toxic"
73,Dose-dependent effect,58,CC(C)(C)[C@H]1CCc2sc(C(=O)N3CCC(C(N)=O)CC3)cc2C1,–,–
65,Dose-dependent effect,–,O=C1/C(=C/c2cccs2)SC(=S)N1c1cccc(O)c1,–,–
98,Dose-dependent effect,71,O=C1NC(=S)S/C1=C\c1ccccc1C(F)(F)F,11.1,Activity (LNCaP [9]): Active; inhibition (c-Myc/Max [1]): Active; inhibition (c-Myc/Max [2]): Active; IC50 (c-Myc/Max [12]): 22.7 µM
65,Dose-dependent effect,–,O=C(CN1C(=O)NC2(CCCC2)C1=O)Nc1cccc(C(F)(F)F)c1,–,–
81,Dose-dependent effect,51,CC(=O)Nc1ccc(Nc2cc(Cl)c(C(F)(F)F)cc2[N+](=O)[O-])cc1,–,–
78,Dose-dependent effect,64,CN1C(=O)/C(=C\C=C\c2ccco2)SC1=S,–,–

SMILES,inhibition (c-Myc/Max [3]) [%],inhibition (c-Myc/Max [5]),inhibition (c-Myc/Max [7]) [%],IC50 (LNCaP [4]) [µM],also measured
S=C(NCc1ccc(Cl)c(Cl)c1)Nc1cccnc1,73,Dose-dependent effect,50,–,–
